# What was measured:
# [1] = system: CCRF-CEM (leukemia); experiment: NCI 60-cell one-dose antiproliferative screen; format: cell-based, human; details: one dose 10 μM
# [2] = system: RPMI-8226 (leukemia); experiment: NCI 60-cell one-dose antiproliferative screen; format: cell-based, human; details: one dose 10 μM
# [3] = system: A549/ATCC (NSC lung cancer); experiment: NCI 60-cell one-dose antiproliferative screen; format: cell-based, human; details: one dose 10 μM
# [4] = system: EKVX (NSC lung cancer); experiment: NCI 60-cell one-dose antiproliferative screen; format: cell-based, human; details: one dose 10 μM
# [5] = system: HOP-62 (NSC lung cancer); experiment: NCI 60-cell one-dose antiproliferative screen; format: cell-based, human; details: one dose 10 μM
# [6] = system: HOP-92 (NSC lung cancer); experiment: NCI 60-cell one-dose antiproliferative screen; format: cell-based, human; details: one dose 10 μM
# [7] = system: NCI-H226 (NSC lung cancer); experiment: NCI 60-cell one-dose antiproliferative screen; format: cell-based, human; details: one dose 10 μM
# [8] = system: NCI-H23 (NSC lung cancer); experiment: NCI 60-cell one-dose antiproliferative screen; format: cell-based, human; details: one dose 10 μM
# [9] = system: NCI-H322M (NSC lung cancer); experiment: NCI 60-cell one-dose antiproliferative screen; format: cell-based, human; details: one dose 10 μM
# [10] = system: NCI-H460 (NSC lung cancer); experiment: NCI 60-cell one-dose antiproliferative screen; format: cell-based, human; details: one dose 10 μM
# [11] = system: NCI-H522 (NSC lung cancer); experiment: NCI 60-cell one-dose antiproliferative screen; format: cell-based, human; details: one dose 10 μM
# [12] = system: COLO-205 (colon cancer); experiment: NCI 60-cell one-dose antiproliferative screen; format: cell-based, human; details: one dose 10 μM
# [13] = system: HCC-2998 (colon cancer); experiment: NCI 60-cell one-dose antiproliferative screen; format: cell-based, human; details: one dose 10 μM
# [14] = system: HCT-116 (colon cancer); experiment: NCI 60-cell one-dose antiproliferative screen; format: cell-based, human; details: one dose 10 μM
# [15] = system: HCT-15 (colon cancer); experiment: NCI 60-cell one-dose antiproliferative screen; format: cell-based, human; details: one dose 10 μM
# [16] = system: HT29 (colon cancer); experiment: NCI 60-cell one-dose antiproliferative screen; format: cell-based, human; details: one dose 10 μM
# [17] = system: KM12 (colon cancer); experiment: NCI 60-cell one-dose antiproliferative screen; format: cell-based, human; details: one dose 10 μM
# [18] = system: SW-620 (colon cancer); experiment: NCI 60-cell one-dose antiproliferative screen; format: cell-based, human; details: one dose 10 μM
# [19] = system: SF-268 (CNS cancer); experiment: NCI 60-cell one-dose antiproliferative screen; format: cell-based, human; details: one dose 10 μM
# [20] = system: SF-295 (CNS cancer); experiment: NCI 60-cell one-dose antiproliferative screen; format: cell-based, human; details: one dose 10 μM
# [21] = system: SF-539 (CNS cancer); experiment: NCI 60-cell one-dose antiproliferative screen; format: cell-based, human; details: one dose 10 μM
# [22] = system: SNB-19 (CNS cancer); experiment: NCI 60-cell one-dose antiproliferative screen; format: cell-based, human; details: one dose 10 μM
# [23] = system: SNB-75 (CNS cancer); experiment: NCI 60-cell one-dose antiproliferative screen; format: cell-based, human; details: one dose 10 μM
# [24] = system: U251 (CNS cancer); experiment: NCI 60-cell one-dose antiproliferative screen; format: cell-based, human; details: one dose 10 μM
# [25] = system: LOX IMIV (melanoma); experiment: NCI 60-cell one-dose antiproliferative screen; format: cell-based, human; details: one dose 10 μM
# [26] = system: MALME-3M (melanoma); experiment: NCI 60-cell one-dose antiproliferative screen; format: cell-based, human; details: one dose 10 μM
# [27] = system: M14 (melanoma); experiment: NCI 60-cell one-dose antiproliferative screen; format: cell-based, human; details: one dose 10 μM
# [28] = system: MDA-MB-435 (melanoma); experiment: NCI 60-cell one-dose antiproliferative screen; format: cell-based, human; details: one dose 10 μM
# [29] = system: SK-MEL-2 (melanoma); experiment: NCI 60-cell one-dose antiproliferative screen; format: cell-based, human; details: one dose 10 μM
# [30] = system: SK-MEL-28 (melanoma); experiment: NCI 60-cell one-dose antiproliferative screen; format: cell-based, human; details: one dose 10 μM
# [31] = system: UACC-257 (melanoma); experiment: NCI 60-cell one-dose antiproliferative screen; format: cell-based, human; details: one dose 10 μM
# [32] = system: UACC-62 (melanoma); experiment: NCI 60-cell one-dose antiproliferative screen; format: cell-based, human; details: one dose 10 μM
# [33] = system: IGROV1 (ovarian cancer); experiment: NCI 60-cell one-dose antiproliferative screen; format: cell-based, human; details: one dose 10 μM
# [34] = system: OVCAR-3 (ovarian cancer); experiment: NCI 60-cell one-dose antiproliferative screen; format: cell-based, human; details: one dose 10 μM
# [35] = system: OVCAR-4 (ovarian cancer); experiment: NCI 60-cell one-dose antiproliferative screen; format: cell-based, human; details: one dose 10 μM
# [36] = system: OVCAR-5 (ovarian cancer); experiment: NCI 60-cell one-dose antiproliferative screen; format: cell-based, human; details: one dose 10 μM
# [37] = system: OVCAR-8 (ovarian cancer); experiment: NCI 60-cell one-dose antiproliferative screen; format: cell-based, human; details: one dose 10 μM
# [38] = system: NCI/ADR-RES (ovarian cancer); experiment: NCI 60-cell one-dose antiproliferative screen; format: cell-based, human; details: one dose 10 μM
# [39] = system: SK-OV-3 (ovarian cancer); experiment: NCI 60-cell one-dose antiproliferative screen; format: cell-based, human; details: one dose 10 μM
# [40] = system: 786-0 (renal cancer); experiment: NCI 60-cell one-dose antiproliferative screen; format: cell-based, human; details: one dose 10 μM
# [41] = system: A498 (renal cancer); experiment: NCI 60-cell one-dose antiproliferative screen; format: cell-based, human; details: one dose 10 μM
# [42] = system: ACHN (renal cancer); experiment: NCI 60-cell one-dose antiproliferative screen; format: cell-based, human; details: one dose 10 μM
# [43] = system: CAKI-1 (renal cancer); experiment: NCI 60-cell one-dose antiproliferative screen; format: cell-based, human; details: one dose 10 μM
# [44] = system: RXF 393 (renal cancer); experiment: NCI 60-cell one-dose antiproliferative screen; format: cell-based, human; details: one dose 10 μM
# [45] = system: SN12C (renal cancer); experiment: NCI 60-cell one-dose antiproliferative screen; format: cell-based, human; details: one dose 10 μM
# [46] = system: TK-10 (renal cancer); experiment: NCI 60-cell one-dose antiproliferative screen; format: cell-based, human; details: one dose 10 μM
# [47] = system: UO-31 (renal cancer); experiment: NCI 60-cell one-dose antiproliferative screen; format: cell-based, human; details: one dose 10 μM
# [48] = system: PC-3 (prostate cancer); experiment: NCI 60-cell one-dose antiproliferative screen; format: cell-based, human; details: one dose 10 μM
# [49] = system: DU-145 (prostate cancer); experiment: NCI 60-cell one-dose antiproliferative screen; format: cell-based, human; details: one dose 10 μM
# [50] = system: MCF7 (breast cancer); experiment: NCI 60-cell one-dose antiproliferative screen; format: cell-based, human; details: one dose 10 μM
# [51] = system: MDA-MB-231/ATCC (breast cancer); experiment: NCI 60-cell one-dose antiproliferative screen; format: cell-based, human; details: one dose 10 μM
# [52] = system: HS 578T (breast cancer); experiment: NCI 60-cell one-dose antiproliferative screen; format: cell-based, human; details: one dose 10 μM
# [53] = system: T-47D (breast cancer); experiment: NCI 60-cell one-dose antiproliferative screen; format: cell-based, human; details: one dose 10 μM
# [54] = system: MDA-MB-468 (breast cancer); experiment: NCI 60-cell one-dose antiproliferative screen; format: cell-based, human; details: one dose 10 μM
# [55] = system: 60 human tumor cell lines; experiment: NCI 60-cell one-dose antiproliferative screen, whole panel; format: cell-based
compound,measurement,setting,value
"Cc1cc(C)n(-c2ccc3nnc(-c4ccccc4)n3n2)n1 [Compound 5, 6-(3,5-dimethyl-1H-pyrazol-1-yl)-3-phenyl-[1,2,4]triazolo[4,3-b]pyridazine]",GI%,[1],— (— GI% is below 15%)
same,GI%,[2],— (— GI% is below 15%)
same,GI%,[3],— (— GI% is below 15%)
same,GI%,[4],— (— GI% is below 15%)
same,GI%,[5],— (— GI% is below 15%)
same,GI%,[6],— (— GI% is below 15%)
same,GI%,[7],— (— GI% is below 15%)
same,GI%,[8],— (— GI% is below 15%)
same,GI%,[9],— (— GI% is below 15%)
same,GI%,[10],— (— GI% is below 15%)
same,GI%,[11],25.34%
same,GI%,[12],— (— GI% is below 15%)
same,GI%,[13],— (— GI% is below 15%)
same,GI%,[14],— (— GI% is below 15%)
same,GI%,[15],— (— GI% is below 15%)
same,GI%,[16],— (— GI% is below 15%)
same,GI%,[17],— (— GI% is below 15%)
same,GI%,[18],— (— GI% is below 15%)
same,GI%,[19],— (— GI% is below 15%)
same,GI%,[20],— (— GI% is below 15%)
same,GI%,[21],— (— GI% is below 15%)
same,GI%,[22],— (— GI% is below 15%)
same,GI%,[23],— (— GI% is below 15%)
same,GI%,[24],— (— GI% is below 15%)
same,GI%,[25],22.70%
same,GI%,[26],— (— GI% is below 15%)
same,GI%,[27],— (— GI% is below 15%)
same,GI%,[28],— (— GI% is below 15%)
same,GI%,[29],— (— GI% is below 15%)
same,GI%,[30],— (— GI% is below 15%)
same,GI%,[31],— (— GI% is below 15%)
same,GI%,[32],— (— GI% is below 15%)
same,GI%,[33],— (— GI% is below 15%)
same,GI%,[34],— (— GI% is below 15%)
same,GI%,[35],— (— GI% is below 15%)
same,GI%,[36],— (— GI% is below 15%)
same,GI%,[37],— (— GI% is below 15%)
same,GI%,[38],23.93%
same,GI%,[39],— (— GI% is below 15%)
same,GI%,[40],— (— GI% is below 15%)
same,GI%,[41],— (— GI% is below 15%)
same,GI%,[42],— (— GI% is below 15%)
same,GI%,[43],25.28%
same,GI%,[44],— (— GI% is below 15%)
same,GI%,[45],— (— GI% is below 15%)
same,GI%,[46],— (— GI% is below 15%)
same,GI%,[47],>100%
same,GI%,[48],— (— GI% is below 15%)
same,GI%,[49],— (— GI% is below 15%)
same,GI%,[50],— (— GI% is below 15%)
same,GI%,[51],— (— GI% is below 15%)
same,GI%,[52],— (— GI% is below 15%)
same,GI%,[53],— (— GI% is below 15%)
same,GI%,[54],— (— GI% is below 15%)
same,inhibition at 10 µM,"[55]; Homo sapiens, 60 cell, read-out: Mean inhibition (mean GI%)",< 0%
same,cytotoxic activity in words,"[55]; NCI-60 panel, one dose 10 μM",demolished cytotoxicity
